Ki data for 24 compounds are collected here from patent US20190085024A1, “Alpha-Ketoamide Inhibitors Of Cysteine Proteases” (Phelix Therapeutics, priority 2017, published 2019).

*1 amine or outer side, *2 acyl side, *3 side chain or, on linkers, in order; H or OH if unused. Where a SMILES comes first, the peptide text is derived from it. [ ]: non-standard residue; d: D form. 2Nal = N[CH](Cc1ccc2ccccc2c1)C(=O)O; X1 = CCC(C)C(N[*:1])C(=O)C(=O)[*:2]

The target in one assay is Cathepsin L (Homo sapiens, UniProt P07711). In words: Cathepsin L enzyme assay. Format: biochemical. As to conditions: Ki by Morrison equation; pH 5.5, substrate Z-Phe-Arg-Amc; read-out: Cat L. The text has this:
Two wells contained DMSO only for controls.
Velocity was converted to μM/sec.

The next assay has as its target Calpain. In words: Calpain enzyme assay. Format: biochemical. As to conditions: Ki by Morrison equation; pH 7.5, 5 mM CaCl2.

Chain of Cathepsin L (P07711 114-333, species assumed): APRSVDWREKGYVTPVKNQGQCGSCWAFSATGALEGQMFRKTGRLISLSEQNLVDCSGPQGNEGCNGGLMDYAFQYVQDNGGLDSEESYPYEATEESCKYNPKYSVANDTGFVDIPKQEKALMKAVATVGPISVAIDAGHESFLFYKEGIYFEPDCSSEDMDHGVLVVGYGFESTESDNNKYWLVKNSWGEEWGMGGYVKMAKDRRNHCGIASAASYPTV

For `CCC(C)C(NC(=O)C(CC(C)C)NC(=O)OCc1ccccc1)C(=O)C(=O)NC(Cc1cnc[nH]1)C(=O)NC(Cc1ccc2ccccc2c1)C(N)=O` (stereo not drawn) [PHELIX328, benzyl (1-((1-((1-((1-amino-3-(naphthalen-2-yl)-1-oxopropan-2-yl)amino)-3-(1H-imidazol-5-yl)-1-oxopropan-2-yl)amino)-4-methyl-1,2-dioxohexan-3-yl)amino)-4-methyl-1-oxopentan-2-yl)carbamate], the values for the Ki at Cathepsin L and on Calpain were 0.00252 µM and 0.0351 µM, respectively.
As for `CCC(C)C(NC(=O)C(=O)CCNC(=O)Cc1ccccc1)C(=O)NC(C)(C)C(=O)O` (stereo not drawn) [PHELIX133, 2-methyl-2-(3-methyl-2-(2-oxo-4-(2-phenylacetamido)butanamido)pentanamido)propanoic acid], at Cathepsin L, the Ki is 210 µM.
Turning to `CCC(C)C(NC(=O)C(CC(N)=O)NC(=O)Cc1ccccc1)C(=O)C(=O)NCC(=O)NC(Cc1ccc2ccccc2c1)C(N)=O` (stereo not drawn) [PHELIX322, N^1-(1-((2-((1-amino-3-(naphthalen-2-yl)-1-oxopropan-2-yl)amino)-2-oxoethyl)amino)-4-methyl-1,2-dioxohexan-3-yl)-2-(2-phenylacetamido)succinamide], the Ki on Cathepsin L was found to be 0.101 µM; at Calpain it was 0.071 µM.
As to `CCC(C)C(NC(=O)C(CC(C)C)NC(=O)OCc1ccccc1)C(=O)C(=O)NC(C)(C)C(=O)NC(Cc1ccc2ccccc2c1)C(N)=O` (stereo not drawn) [PHELIX296, benzyl (1-((1-((1-((1-amino-3-(naphthalen-2-yl)-1-oxopropan-2-yl)amino)-2-methyl-1-oxopropan-2-yl)amino)-4-methyl-1,2-dioxohexan-3-yl)amino)-4-methyl-1-oxopentan-2-yl)carbamate], the Ki at Cathepsin L came out at 1.72 µM; at Calpain, 1.55 µM.
On Calpain, `CC(C)CC(NC(=O)C(Cc1ccccc1)NC(=O)OCc1ccccc1)C(=O)NC(Cc1ccccc1)C(=O)C(=O)NC(CCCNC(=N)N)C(N)=O` (stereo not drawn) [PHELIX339, benzyl (1-amino-10-benzyl-6-carbamoyl-1-imino-13-isobutyl-8,9,12,15-tetraoxo-17-phenyl-2,7,11,14-tetraazaheptadecan-16-yl)carbamate] gave a Ki of 0.00218 µM.
For `CC(NC(=O)C(Cc1ccccc1)NC(=O)Cc1ccccc1)C(=O)C(=O)NC(Cc1ccccc1)C(=O)NC(Cc1ccc(-c2ccccc2)cc1)C(N)=O` (stereo not drawn) [PHELIX213, N-(1-((3-([1,1′-biphenyl]-4-yl)-1-amino-1-oxopropan-2-yl)amino)-1-oxo-3-phenylpropan-2-yl)-2-oxo-3-(3-phenyl-2-(2-phenylacetamido)propanamido)butanamide], the Ki on Calpain was > 10 µM.
Take `CCC(C)C(NC(=O)C(Cc1c[nH]cn1)NC(=O)OCc1ccccc1)C(=O)C(=O)NCC(=O)NC(Cc1ccc2ccccc2c1)C(N)=O` (stereo not drawn) [PHELIX311, benzyl (1-((1-((2-((1-amino-3-(naphthalen-2-yl)-1-oxopropan-2-yl)amino)-2-oxoethyl)amino)-4-methyl-1,2-dioxohexan-3-yl)amino)-3-(1H-imidazol-4-yl)-1-oxopropan-2-yl)carbamate]: the Ki at Cathepsin L came out at 0.106 µM; on Calpain, 0.309 µM.
Take `CCC(C)C(NC(=O)C(CC(C)C)NC(C)=O)C(=O)C(=O)NCC(=O)NC(Cc1ccc2ccccc2c1)C(N)=O` (stereo not drawn) [PHELIX307, 3-(2-acetamido-4-methylpentanamido)-N-(2-((1-amino-3-(naphthalen-2-yl)-1-oxopropan-2-yl)amino)-2-oxoethyl)-4-methyl-2-oxohexanamide]: the Ki on Calpain turned out to be 0.00261 µM.
Consider `CCC(C)C(NC(=O)C(CC(C)C)NC(=O)OCc1ccccc1)C(=O)C(=O)NC(Cc1ccc2ccccc2c1)C(=O)N(C)C` (stereo not drawn) [PHELIX360, benzyl (1-((1-((1-(dimethylamino)-3-(naphthalen-2-yl)-1-oxopropan-2-yl)amino)-4-methyl-1,2-dioxohexan-3-yl)amino)-4-methyl-1-oxopentan-2-yl)carbamate], for which the Ki at Cathepsin L amounted to 0.0291 µM; at Calpain, 0.0441 µM.
Take `CCC(C)C(NC(=O)C(CC(C)C)NC(=O)OCc1ccccc1)C(=O)C(=O)NCC(=O)NC(Cc1cccnc1)C(N)=O` (stereo not drawn) [PHELIX356, benzyl (1-((1-((2-((1-amino-1-oxo-3-(pyridin-3-yl)propan-2-yl)amino)-2-oxoethyl)amino)-4-methyl-1,2-dioxohexan-3-yl)amino)-4-methyl-1-oxopentan-2-yl)carbamate]: the values for the Ki at Cathepsin L and at Calpain were 0.0112 µM and 0.00917 µM, respectively.
Regarding `CCC(C)C(NC(=O)C(CC(C)C)NC(=O)OCc1ccccc1)C(=O)C(=O)NC(CCCNC(=N)N)C(=O)NC(Cc1ccc2ccccc2c1)C(N)=O` (stereo not drawn) [PHELIX329, benzyl (1-((1-((1-((1-amino-3-(naphthalen-2-yl)-1-oxopropan-2-yl)amino)-5-guanidino-1-oxopentan-2-yl)amino)-4-methyl-1,2-dioxohexan-3-yl)amino)-4-methyl-1-oxopentan-2-yl)carbamate], the figures for the Ki at Cathepsin L and on Calpain were 0.00267 µM and 0.111 µM, respectively.
For `CCC(C)C(NC(=O)C(Cc1c[nH]cn1)NC(=O)Cc1ccccc1)C(=O)C(=O)NCC(=O)NC(Cc1ccc2ccccc2c1)C(N)=O` (stereo not drawn) [PHELIX302, 3-(3-(1H-imidazol-4-yl)-2-(2-phenylacetamido)propanamido)-N-(2-((1-amino-3-(naphthalen-2-yl)-1-oxopropan-2-yl)amino)-2-oxoethyl)-4-methyl-2-oxohexanamide], the values for the Ki at Cathepsin L and at Calpain were 0.389 µM and 0.201 µM, respectively.
With `CCC(C)C(NC(=O)C(=O)C(C)NC(=O)C(Cc1ccccc1)NC(=O)Cc1ccccc1)C(=O)NC1(C(=O)O)CCCC1` (stereo not drawn) [PHELIX217, 1-(3-methyl-2-(2-oxo-3-(3-phenyl-2-(2-phenylacetamido)propanamido)butanamido)pentanamido)cyclopentane-1-carboxylic acid], the Ki was 1080 µM on Cathepsin L and > 100 µM on Calpain.
With `CCC(C)C(NC(=O)C(CC(C)C)NC(=O)OCc1ccccc1)C(=O)C(=O)NCC(=O)NC(Cc1ccccc1)C(N)=O` (stereo not drawn) [PHELIX318, benzyl (1-((1-((2-((1-amino-1-oxo-3-phenylpropan-2-yl)amino)-2-oxoethyl)amino)-4-methyl-1,2-dioxohexan-3-yl)amino)-4-methyl-1-oxopentan-2-yl)carbamate], the Ki at Cathepsin L amounted to 0.00382 µM; on Calpain, 0.00163 µM.
The matching figures for `CC(NC(=O)C(Cc1ccccc1)NC(=O)Cc1ccccc1)C(=O)C(=O)NC(Cc1ccccc1)C(=O)NC(Cc1ccc2ccccc2c1)C(N)=O` (stereo not drawn) [PHELIX216, N-(1-((1-amino-3-(naphthalen-2-yl)-1-oxopropan-2-yl)amino)-1-oxo-3-phenylpropan-2-yl)-2-oxo-3-(3-phenyl-2-(2-phenylacetamido)propanamido)butanamide]: > 1000 µM and > 100 µM.
With `CCC(C)C(NC(=O)C(CC(C)C)NC(=O)Cc1ccccn1)C(=O)C(=O)NCC(=O)NC(Cc1ccc2ccccc2c1)C(N)=O` (stereo not drawn) [PHELIX324, N-(2-((1-amino-3-(naphthalen-2-yl)-1-oxopropan-2-yl)amino)-2-oxoethyl)-4-methyl-3-(4-methyl-2-(2-(pyridin-2-yl)acetamido)pentanamido)-2-oxohexanamide], the Ki on Cathepsin L is 0.00132 µM; at Calpain, 0.00815 µM.
In the case of `CCC(C)C(NC(=O)CNC(=O)C(Cc1ccc2ccccc2c1)NC(C)=O)C(=O)C(=O)NC(CC(C)C)C(=O)NC(Cc1ccccc1)C(N)=O` (stereo not drawn) [PHELIX338, 3-(2-(2-acetamido-3-(naphthalen-2-yl)propanamido)acetamido)-N-(1-((1-amino-1-oxo-3-phenylpropan-2-yl)amino)-4-methyl-1-oxopentan-2-yl)-4-methyl-2-oxohexanamide] (Ac-[2Nal]G[X1]LF-NH2; configuration not given here), the Ki at Cathepsin L stood at 2.88 µM.
Take `CC(NC(=O)C(Cc1ccccc1)NC(=O)Cc1ccccc1)C(=O)C(=O)NC(Cc1ccccc1)C(=O)NC(Cc1ccc(-c2ccccc2)cc1)C(N)=O` (stereo not drawn) [PHELIX247, N-(1-((3-([1,1′-biphenyl]-4-yl)-1-amino-1-oxopropan-2-yl)amino)-1-oxo-3-phenylpropan-2-yl)-2-oxo-3-(3-phenyl-2-(2-phenylacetamido)propanamido)butanamide]: the Ki at Calpain was > 10 µM.
`CC(NC(=O)C(Cc1ccccc1)NC(=O)Cc1ccccc1)C(=O)C(=O)NC(Cc1ccccc1)C(=O)NC(Cc1ccc(-c2ccccc2)cc1)C(N)=O` (stereo not drawn) [PHELIX248, N-(1-((3-([1,1′-biphenyl]-4-yl)-1-amino-1-oxopropan-2-yl)amino)-1-oxo-3-phenylpropan-2-yl)-2-oxo-3-(3-phenyl-2-(2-phenylacetamido)propanamido)butanamide]: the Ki on Calpain is > 10 µM.
For `CCC(C)C(NC(=O)C(CC(C)C)NC(=O)OCc1ccccc1)C(=O)C(=O)NCC(=O)NC(Cc1ccc2ccccc2c1)C(N)=O` (stereo not drawn) [PHELIX257, benzyl (1-((1-((2-((1-amino-3-(naphthalen-2-yl)-1-oxopropan-2-yl)amino)-2-oxoethyl)amino)-4-methyl-1,2-dioxohexan-3-yl)amino)-4-methyl-1-oxopentan-2-yl)carbamate], the Ki at Calpain was found to be 0.00092 µM.
Compound `CCC(C)C(NC(=O)C(CC(C)C)NC(=O)OCc1ccccc1)C(=O)C(=O)NCC(=O)NC(Cc1ccc2ccccc2c1)C(N)=O` (stereo not drawn) [PHELIX293, benzyl (1-((1-((2-((1-amino-3-(naphthalen-2-yl)-1-oxopropan-2-yl)amino)-2-oxoethyl)amino)-4-methyl-1,2-dioxohexan-3-yl)amino)-4-methyl-1-oxopentan-2-yl)carbamate] displayed a Ki on Calpain of 1.19 µM.
Take `CCC(C)C(NC(=O)C(CC(C)C)NC(=O)OCc1ccccc1)C(=O)C(=O)N(C)C(Cc1ccccc1)C(N)=O` (stereo not drawn) [PHELIX358, benzyl (1-((1-((1-amino-1-oxo-3-phenylpropan-2-yl)(methyl)amino)-4-methyl-1,2-dioxohexan-3-yl)amino)-4-methyl-1-oxopentan-2-yl)carbamate]: the Ki at Cathepsin L was > 1 µM.
Still for that read-out and setting: as for `CCC(C)C(NC(=O)C(=O)CCNC(=O)C(Cc1ccccc1)NC(=O)Cc1ccccc1)C(=O)NC(C)(C)C(=O)O` (stereo not drawn) [PHELIX218, 13-benzyl-5-(sec-butyl)-2,2-dimethyl-4,7,8,12,15-pentaoxo-16-phenyl-3,6,11,14-tetraazahexadecanoic acid], the figure is > 1000 µM.
Regarding `CCC(C)C(NC(=O)C(CC(C)C)NC(C)=O)C(=O)C(=O)NCC(=O)NC(Cc1ccc2ccccc2c1)C(N)=O` (stereo not drawn) [PHELIX310], the Ki at Calpain turned out to be 0.0055 µM.
